Assay results: PMC10818380, “Triphenylphosphonium Analogs of Short Peptide Related to Bactenecin 7 and Oncocin 112 as Antimicrobial Agents” (Pharmaceutics, 2024)
≈ marks a conversion by molar mass, not a printed value. Read-outs that look alike come from different tables or passages of the source. Square brackets hold non-standard residues; d marks the D form. Peptide text beside a SMILES is read from it. * marks the point of attachment. X2 = c1ccc([P+](CCCCCCCCCCN*)(c2ccccc2)c2ccccc2)cc1; X1 = c1ccc([P+](CCN*)(c2ccccc2)c2ccccc2)cc1

Columns and labels:
E. coli JW0368 ΔsbmA = experiment: microbe, parasite or virus in culture; assay type: cell-based; conditions: for MIC: E. coli ∆sbmA, 37 °C, 18 h; for difference of MIC values, E. coli ΔsbmA versus wild type: ratio of MIC values of Table 1
Method: (§1) The MIC values for Bac(1–10), Bac(1–10, R/Y), Bac(1–10, R/Y)-Cn-TPP, TPP-C10-Bac(1–10, R/Y), and Onc112 were determined via LB broth microdilution, as recommended by CLSI in the Methods for Dilution Antimicrobial Susceptibility Tests for Bacteria that Grow Aerobically, Approved Standard, 9th ed., CLSI document M07-A9, using in-house-prepared panels. The compounds were diluted in a 96-well microtiter plate to final concentrations ranging from 0.1 to 100 µM in a 200 µL aliquot of the bacterial suspension, followed by incubation at 37 °C for 18 h. The cell concentration was estimated according to the absorbance (A600). The measurements were performed with a VICTOR X5 Multilabel Plate Reader (PerkinElmer, Waltham, MA, USA). The following bacterial strains were used: E. coli BW25113, E. coli JW0368 ΔsbmA, B. subtilis 168, and B. subtilis CFR [39].

B. subtilis 168 = experiment: microbe, parasite or virus in culture; assay type: cell-based
Method: as §1

B. subtilis CFR = experiment: microbe, parasite or virus in culture; assay type: cell-based; conditions: CFR, 18 h
Method: as §1

E. coli BW25113 = experiment: microbe, parasite or virus in culture; assay type: cell-based; conditions: E. coli BW25113, 37 °C, 18 h
Method: as §1

VA13 = experiment: cells; assay type: cell-based, human
Method: (§2) The cytotoxicity of the substances under study was tested using the MTT (3-(4,5-dimethylthiazol-2-yl)-2,5-diphenyltetrazolium bromide) assay with some modifications. The detailed procedure for the MTT assay is given in the Supplementary Materials (Section S5).
(§3) Two thousand five hundred cells per well for the MCF7, HEK293T, and A549 cell lines or 4000 cells per well for the VA13 cell line were plated in 135 µL of DMEM-F12 media with 10% FBS (both Gibco, Waltham, MA, USA) in a 96-well plate and were incubated in a 5% CO2 incubator for the first 16 h, without treatment. Then 15 µL of media-DMSO solutions of the tested substances were added to the cells (the final DMSO concentrations in the media were 1% or less), and the cells were treated for 72 h with 25 nM–50 µM (eight dilutions) of the tested substances (triplicate each). Serial dilutions of DMSO and doxorubicin were used as controls. The MTT reagent (Paneco LLC, Moscow, Russia) was then added to the cells at a final concentration of 0.5 g/L (10× stock solution in PBS was used) and incubated for 2.5 h at 37 °C in the incubator under an atmosphere of 5%
(§4) CO2. The MTT solution was then discarded, and 140 µL of DMSO (PharmaMed LLC, Krasnodar, Russia) was added. The plates were swayed on a shaker (60 rpm) to dissolve the formazan. The absorbance was measured using the VICTOR X5 Multilabel Plate Reader (PerkinElmer, Wa l th a m, MA, USA) at a wavelength of 565 nm (in order to measure formazan concentration). The resu l ts were used to construct a dose-response graph and to estimate IC50 values.
(§5) Figure S11.The dependencies of viability of cells after treatment by tested compounds.
(§6) (1 picture or pasted object on this page, not shown here)

HEK293T = experiment: cells; assay type: cell-based, human; conditions: 72 h
Method: as §2, §3, §4, §5, §6

MCF7 = experiment: cells; assay type: cell-based, human
Method: as §2, §3, §4, §5, §6

E. coli ΔsbmA = experiment: Antibacterial activity on agar plates, ΔsbmA strain versus wild type; assay type: cell-based; conditions: Figure 4B
Method: (§7) Antibiotic activity was also evaluated against the following strains: E. coli JW5503 ΔtolC (KanS) ermC, modified with the plasmid pKH80 [59], providing resistance to erythromycin due to the expression of ErmC methyltransferase; E. coli SQ171 ΔtolC transformed with the pAM552 plasmid; E. coli SQ171 ΔtolC modified with the pAM552 plasmid with A2059G substitution in the 23S rRNA; E. coli JW1052 ΔmdtH; E. coli JW0912 ΔompF; and E. coli JW0368 ΔsbmA [57]. The procedure was performed as described previously in [33]. In short, Petri dishes filled with LB solid medium containing a selective antibiotic and 1.5% agar were covered with the tested strains. After that, 1 µL of 10 mM water solutions of Bac(1–10), Bac(1–10, R/Y), Bac(1–10, R/Y)-Cn-TPP, TPP-C10-Bac(1–10, R/Y), and Onc112, LEV (25 μg/mL) in water, and ERY (5 mg/mL and 50 mg/mL) in DMSO were applied onto the agar plates. After overnight incubation at 37 °C, the plates were scanned using the ChemiDoc^TM Imagining System (Bio-Rad Laboratories, Hercules, CA, USA) in three channels (Cy2, Cy3, and Cy5). The obtained images were processed in the Image Lab^TM software (Version 6.0.1, Bio-Rad).

[1] = tested on: E. coli ΔompF, E. coli ΔmdtH; experiment: Antibacterial activity on agar plates, ΔompF and ΔmdtH strains versus wild type; assay type: cell-based; conditions: Figure 4
Method: as §7

A549 = experiment: cells
Method: as §2, §3, §4, §5, §6

B. subtilis = experiment: Membrane potential with fluorescent probe diS-C3-(5); assay type: cell-based; conditions: diS-C3-(5) fluorescence
Method: The membrane potential of B. subtilis was assessed by measuring the fluorescence emitted by the potential-dependent probe, diS-C3-(5). Bacterial cells derived from the overnight culture of B. subtilis were inoculated into a fresh LB medium and allowed to grow for 24 h until reaching an optical density of 0.8 at 600 nm. Subsequently, the bacteria were subjected to a 20-fold dilution in a buffer comprising 100 mM of KCl and 10 mM of Tris, adjusted to a pH of 7.4. Fluorescence measurements were conducted at 670 nm (with excitation at 630 nm) using a Fluorat-02-Panorama fluorimeter manufactured by Lumex Instruments in St. Petersburg, Russia.

[2] = VA13, 72 h, MTT, read-out: IC50 (50% inhibition of viability of cells)
[3] = HEK293T, MTT, read-out: IC50 (50% inhibition of viability of cells)
[4] = MCF7, 72 h, MTT, read-out: IC50 (50% inhibition of viability of cells)
[5] = read-out: IC50 (50% inhibition of viability of cells), A549, 72 h, MTT

## CC[C@H](C)[C@H](NC(=O)[C@@H](CCCNC(=N)N)NC(=O)[C@H](CCCNC(=N)N)NC(=O)[C@@H]1CCCN1C(=O)[C@@H]1CCCN1C(=O)[C@H](CCCNC(=N)N)NC(=O)[C@@H]1CCCN1C(=O)[C@H](CCCNC(=N)N)NC(=O)[C@@H]1CCCN1C(=O)[C@H](CC(C)C)NC(=O)[C@H](Cc1ccc(O)cc1)NC(=O)[C@@H]1CCCN1C(=O)[C@@H]1CCCN1C(=O)[C@H](CCCCN)NC(=O)[C@H](CC(=O)O)NC(=O)[C@@H](N)C(C)C)C(=O)N[C@@H](Cc1ccc(O)cc1)C(=O)N[C@@H](CC(N)=O)C(=O)N[C@H](CCCNC(=N)N)C(N)=O [Onc112, reference compound] (H-VDKPPYLPRPRPPR[dR]IYN[dR]-NH2; N-terminus assumed)
E. coli JW0368 ΔsbmA
  MIC: >90 µM
  difference of MIC values, E. coli ΔsbmA versus wild type: approximately eight
B. subtilis 168; 168, 18 h
  MIC: >50 µM
B. subtilis CFR
  MIC: >50 µM
E. coli BW25113
  MIC: 11.6 µM (≈ 27.7 µg/mL)
VA13; 72 h
  IC50: > 50 µM
HEK293T
  IC50: > 50 µM
MCF7; 72 h
  IC50: > 20 µM
E. coli ΔsbmA
  antibacterial activity on E. coli ΔsbmA compared with wild-type strain: a decrease in the antibacterial activity
[1]
  growth inhibition of E. coli ΔompF and ΔmdtH compared with wild-type strain: no significant difference in the growth inhibition
A549; 72 h
  IC50: > 50 µM

## CC[C@H](C)[C@H](NC(=O)[C@H](CCCNC(=N)N)NC(=O)[C@@H](N)CCCNC(=N)N)C(=O)N[C@@H](CCCNC(=N)N)C(=O)N1CCC[C@H]1C(=O)N[C@@H](CCCNC(=N)N)C(=O)N1CCC[C@H]1C(=O)N1CCC[C@H]1C(=O)N[C@@H](Cc1ccc(O)cc1)C(=O)N[C@@H](CC(C)C)C(=O)NCCCCCCCCCC[P+](c1ccccc1)(c1ccccc1)c1ccccc1 [Compound 4, Bac(1–10, R/Y)-C10-TPP] (H-RRIRPRPPYL-X2; N-terminus assumed)
E. coli JW0368 ΔsbmA
  MIC: 100 µM
E. coli JW0368 ΔsbmA; MIC values of Table 1
  comparison of MIC values, E. coli ΔsbmA versus wild type: the same
B. subtilis 168; B. subtilis 168, 37 °C, 18 h
  MIC: 1.6 µM
B. subtilis CFR
  MIC: 0.8 µM
E. coli BW25113
  MIC: 100 µM
VA13; [2]
  IC50: 12 ± 1 µM
HEK293T; [3]
  IC50: 3.1 ± 0.5 µM
MCF7; [4]
  IC50: 10 ± 1 µM
A549; [5]
  IC50: 9.2 ± 0.9 µM
B. subtilis; 1 µM
  effect on membrane potential of B. subtilis: rapid decrease in the membrane potential

## CC[C@H](C)[C@H](NC(=O)[C@H](CCCNC(=N)N)NC(=O)[C@@H](N)CCCNC(=N)N)C(=O)N[C@@H](CCCNC(=N)N)C(=O)N1CCC[C@H]1C(=O)N[C@@H](CCCNC(=N)N)C(=O)N1CCC[C@H]1C(=O)N1CCC[C@H]1C(=O)N[C@@H](Cc1ccc(O)cc1)C(=O)N[C@@H](CC(C)C)C(=O)NCC[P+](c1ccccc1)(c1ccccc1)c1ccccc1 [Compound 3, Bac(1–10, R/Y)-C2-TPP] (H-RRIRPRPPYL-X1; N-terminus assumed)
E. coli JW0368 ΔsbmA
  MIC: >100 µM
  difference of MIC values, E. coli ΔsbmA versus wild type: four
B. subtilis 168; B. subtilis 168, 37 °C, 18 h
  MIC: 12.5 µM
B. subtilis CFR
  MIC: 50 µM
E. coli BW25113
  MIC: 26.3 µM
VA13; [2]
  IC50: > 50 µM
HEK293T; [3]
  IC50: > 50 µM
MCF7; [4]
  IC50: > 20 µM
E. coli ΔsbmA
  antibacterial activity on E. coli ΔsbmA compared with wild-type strain: a decrease in the antibacterial activity
A549; [5]
  IC50: > 50 µM
B. subtilis; concentration not given
  effect on membrane potential of B. subtilis: a decrease in the membrane potential
